Molecules are shown by their SMILES. Some results are limits rather than exact numbers.

The test concerns THP-1 viability, CellTiter-Glo luminescence, 72 h. Nature of the test: PubChem AID 2252.
Usually EC50 stands for the midpoint of the concentration-response curve. As to `Cc1cc(OCCCCCN2CCCC2)ccc1Cl`, the EC50 was 48.7 µM. Take `Oc1c(Br)cc(Br)cc1Oc1ccc(Br)cc1Br`: the EC50 was 26.9 µM. In the case of `CCSc1ccc2c(c1)N(CCCN1CCN(C)CC1)c1ccccc1S2`, the EC50 is 12.8 µM. The same measure for `c1ccc2c(c1)OC(CCCN1CCCCC1)c1ccccc1S2` (configuration not stated): 21.8 µM; for `CN(C)CCOCCOc1ccc(Cl)c2ccccc12`: 48.3 µM; for `CCN1CCN(CCCNC(=O)c2ccc(/C=C3/Sc4ccccc4N(Cc4ccccc4F)C3=O)cc2)CC1`: 11.2 µM.

For the molecule `CC(C(=O)c1ccc(-c2ccccc2)cc1)[n+]1cccc(NC(=O)c2ccccc2)c1` (configuration not stated), the EC50 is 17.7 µM.

Turning to `O=C(C[n+]1cc(-c2ccc(Cl)cc2)n2c1CCC2)N1c2ccccc2Sc2ccccc21`, the EC50 was 15.4 µM.

As for `Cc1cccc(NC(=O)C2CCCN2S(=O)(=O)c2ccc3c(c2)n(C)c(=O)c(=O)n3C)c1` (configuration not stated), the EC50 was 11 µM.

As to `CC1=C([N+](=O)[O-])C(c2cccc(Br)c2)C2=C(N1)c1ccccc1C2=O` (configuration not stated), the EC50 is 3.1 µM. The same measure for `Oc1ccccc1N=Cc1c(O)ccc2oc3c(c12)CCCC3`: 45.8 µM; for `CC(=O)Oc1ccccc1C(=O)Nc1ncc([N+](=O)[O-])s1`: 20.2 µM; for `O=C(CCc1ccccc1)NNC(=O)c1ccccn1`: 18.2 µM. The same measure for `c1ccc(CNc2nc(-c3ccccn3)nc3ccccc23)cc1`: 1.72 µM; for `CCCCCCCCC[n+]1cccc2c3ccccc3ccc21`: 0.82 µM; for `c1ccc(Nc2nc(NCC3CCCO3)c3ccccc3n2)cc1` (configuration not stated): 3.83 µM. The same measure for `CCN1CCN(CCNC(=O)c2ccc(/C=C3/Sc4ccccc4N(Cc4cccc(C)c4)C3=O)cc2)CC1`: 8.21 µM; for `COc1cccc(/C=C/C(=O)c2cccc([N+](=O)[O-])c2)c1OC`: 22.3 µM; for `Cc1cccc(C(=O)NNC(=S)NC(=O)c2cccs2)c1`: 14.6 µM. Consider `O=C(N/N=C/c1ccc([N+](=O)[O-])o1)C(O)c1ccccc1` (configuration not stated), for which the EC50 was 17.9 µM.

Turning to `COc1cc(CNCCc2ccccc2)cc(Cl)c1OCc1ccccc1`, the EC50 is 16.6 µM. The same measure for `c1ccc2c(c1)CCc1ccccc1C2=C1CCNCC1`: 25.2 µM. The same measure for `CC(/C=N/Nc1nc2ccccc2[nH]1)=C\c1ccccc1`: 33.4 µM. As to `CC(C)CCC(CCNCc1ccccn1)c1ccc(Cl)cc1` (configuration not stated), the EC50 was 16.2 µM. As for `CN(C)CC/C=C1/c2ccccc2Sc2ccc(Cl)cc21`, the EC50 was 10.1 µM. Regarding `COc1ccc(/C=N/Nc2cc(C)nc3ccc(Br)cc23)cc1`, the EC50 was 4.17 µM. Regarding `CN1CCCN(C(c2ccccc2)c2ccc(Cl)cc2)CC1` (configuration not stated), the EC50 was 8.99 µM. Regarding `O=C1c2c(O)ccc(O)c2C(=O)c2c(NCCNCCO)ccc(NCCNCCO)c21`, the EC50 is under 0.1 µM. Regarding `CC1CCN(CC(CS(=O)(=O)c2ccc([N+](=O)[O-])cc2)N2CCC(C)CC2)CC1` (configuration not stated), the EC50 was 14.6 µM. The same measure for `Cc1ccc(-n2[nH]c(C)c(C=NCc3ccncc3)c2=O)cc1`: 31.6 µM.

`CCCCCCCCCn1c2c(c(=N)c3c1CCC3)CCC2`: the EC50 was 0.52 µM. The same measure for `Oc1ccc(/C=N/N=C(c2ccccc2)c2ccccc2)c(O)c1O`: 7.47 µM. The same measure for `CN(C)CCCNC(=S)NCC(c1ccc(Cl)cc1Cl)c1c[nH]c2ccccc12` (configuration not stated): 3.66 µM. Turning to `O=C(CN1CC(c2ccccc2)CC1=O)N/N=C/c1cc(Br)ccc1O` (configuration not stated), the EC50 is 3.85 µM. The same measure for `c1ccc(CN2CCN(c3ncnc4c3[nH]c3ccccc34)CC2)cc1`: 20 µM; for `Oc1c(CN2CCCCC2)cc(Br)c2cccnc12`: 2.65 µM; for `COC12C(COC(N)=O)C3=C(C(=O)C(C)=C(N)C3=O)N1CC1C2N1C` (configuration not stated): 11.6 µM. Turning to `O=C(N/N=C\c1ccc(Cl)s1)c1cccs1`, the EC50 is 32.7 µM. On to `COc1ccc(C(=O)CSc2nnc(-c3cnccn3)n2Cc2ccco2)cc1`, for which the EC50 was under 0.1 µM. The same measure for `CCOc1cc(CNC(C)(C)CO)cc(Br)c1OCc1ccc(Cl)cc1Cl`: 5.53 µM; for `CCN1CCN(c2cc(C)c3cc(NC(=S)N4CCN(c5ccccc5F)CC4)ccc3n2)CC1`: 17.9 µM; for `COc1cc([N+](=O)[O-])cc(/C=N/NC(=O)C(O)(c2ccccc2)c2ccccc2)c1O`: 25.4 µM.

In the case of `COc1ccc(C(=O)NC(=S)NNC(=O)c2cccc(C)c2)cc1`, the EC50 was 18.2 µM. On to `O=C(CSc1cccc2cccnc12)Nc1ccc(S(=O)(=O)N2CCOCC2)cc1`, for which the EC50 was 24.3 µM. As for `COc1cc(C(=O)O/N=C2\C=CC(=O)C(C)=C2)cc(OC)c1OC`, the EC50 is 7.36 µM.

With `c1ccc2cc3c(NCCN4CCOCC4)ccnc3cc2c1`, the EC50 was 3.7 µM. The same measure for `C#CCOCCOCCOCCNc1nc(N2CCN(C(=O)CCCCCCCCCCNC(=O)[C@H]([C@@H](C)CC)n3cc(CCCCN=C(N)N)nn3)CC2)nc(N2CCN(C(=O)CCCCCCCCCCNC(=O)[C@H](CCCCN)n3cc(C)nn3)CC2)n1`: 3.57 µM. Consider `O=C(Nc1ccc(Cl)cc1)Nc1ccc2c(c1)N1CCN=C1S2`, for which the EC50 was 13.9 µM. The same measure for `CC(C)(C)c1ccc(NC(=O)NCc2ccco2)cc1`: 13.3 µM. Regarding `CCN(CC)c1ccc(CNc2nc3ccccc3n2CCN2CCCCC2)cc1`, the EC50 was 16.5 µM. The same measure for `CCCOc1ccc(-c2cn3ccccc3n2)cc1`: 43.5 µM. The same measure for `O=C(NC(=S)NNC(=O)c1ccccc1O)c1ccco1`: 17.2 µM. The same measure for `Nc1cc(Cl)c2nonc2c1[N+](=O)[O-]`: 2.73 µM; for `Cc1ccc(NC(=O)c2ccc([N+](=O)[O-])o2)c(C)c1`: 12.1 µM; for `CC(C)N1CCc2c(sc(NC(=O)c3ccc(S(=O)(=O)N4CCc5ccccc54)cc3)c2C(N)=O)C1`: 8.45 µM.

As to `CC[C@H](C)[C@@H](CN[C@H](C)CNC)NCCC(c1ccccc1)c1ccccc1`, the EC50 is 7.07 µM. The same measure for `C=C1c2c(Cl)ccc(O)c2C(O)=C2C(=O)[C@]3(O)C(O)=C(C(N)=O)C(=O)[C@@H](N(C)C)[C@@H]3[C@@H](O)C12` (some centres not stated): 13.4 µM; for `O=C(N/N=C/c1c(O)ccc2ccccc12)c1ccc(CO)nc1`: 1.41 µM; for `c1cc2c(cc1C1CCCCC1)c1c3n2CCN=C3CCC1`: 11.9 µM. The same measure for `CC(C)[C@@H]1CC[C@@H](C)C[C@H]1OC(=O)C[n+]1cc(-c2ccc(Cl)cc2)n2c1CCCCC2`: 2.19 µM; for `NC1=NC[C@H](c2ccccc2)N1CCCCC1CCCCC1`: 6.36 µM. Consider `c1ccc2cc(CSCc3nc4ccccc4[nH]3)ccc2c1`, for which the EC50 was 48.5 µM. For `COC(=O)C(C)NC(=S)N1CCN(c2c(F)cc3c(=O)c(C(=O)O)cn(C4CC4)c3c2OC)CC1C` (configuration not stated), the EC50 was 36.9 µM. The same measure for `Cc1c2ccncc2c(C)c2c1[nH]c1ccccc12`: 2.72 µM; for `CCCCc1ccc(NC2=NCCCS2)cc1`: 21.3 µM. For the molecule `CC(=O)c1c(C)nc(-c2cccc([N+](=O)[O-])c2)n1O`, the EC50 was under 0.1 µM. As to `Cc1ccc2c(c1)sc(-c1ccc(N(C)C)cc1)[n+]2C`, the EC50 was 4.02 µM.

`Oc1ccc(CN2CCN(Cc3ccccc3)CC2)c2cccnc12`: the EC50 is 9.96 µM. The same measure for `c1ccc2c(c1)CCN(c1nc3ccccc3n3cnnc13)C2`: 24.8 µM.

In the case of `N=c1c2c(n(Cc3cccc(Cl)c3)c3c1CCC3)CCCC2`, the EC50 was 13.5 µM.

For the molecule `Cc1ccc2nc(N(CCCN(C)C)C(=O)c3ccc4c(c3)CCCC4)sc2c1`, the EC50 was 9.42 µM. For `O=C(Nc1nnc(-c2cccs2)o1)c1cccc(Oc2ccccc2)c1`, the EC50 is 18.6 µM.

Regarding `CN(C)CCCN1c2ccccc2Sc2ccccc21`, the EC50 is 32.6 µM.

On to `Clc1ccc(OCCCNCc2ccccc2)c(Br)c1`, for which the EC50 is 13.7 µM.

Take `O=C(CCN1CCC(c2ccccc2)C1)c1ccc2c(c1)OCCO2` (configuration not stated): the EC50 is 21.6 µM. Consider `Cn1cc(C(=O)N/N=C/C(Br)=C/c2ccccc2)ccc1=O`, for which the EC50 was 14.5 µM.

Turning to `CCc1ccc2c(c1)CCCN2C(=O)c1ccccc1C(=O)O`, the EC50 was 38.3 µM. On to `O=c1[nH][nH]c(-c2ccccc2O)c1C(C[N+](=O)[O-])c1ccc(Br)cc1` (configuration not stated), for which the EC50 is 21.1 µM. Turning to `CCOc1ccc(Nc2nc(N)c3ccccc3n2)cc1`, the EC50 is 6.96 µM. For `C#CCOCCOCCOCCNc1nc(N2CCN(C(=O)CCCCCCCCCCNC(=O)[C@H](CCCCN)n3cc(C)nn3)CC2)nc(N2CCN(C(=O)CCCCCCCCCCNC(=O)[C@H](CCCN=C(N)N)n3cc(C[C@@H](C)CC)nn3)CC2)n1`, the EC50 is 5.13 µM. On to `O=C(Nc1cccc(NC(=O)c2ccccc2Cl)c1)c1ccc([N+](=O)[O-])o1`, for which the EC50 is 2.11 µM. The same measure for `COc1ccc(C(C(=O)Nc2ccc(C(C)C)cc2)N(Cc2ccco2)C(=O)CC2NC(=O)NC2=O)cc1` (configuration not stated): 31.9 µM; for `O=C(Nc1nnc(-c2ccco2)o1)c1cccc(Cl)c1`: 21.1 µM. For `Cc1cc(OCC(O)CNC(C)c2ccccc2)ccc1C(C)C` (configuration not stated), the concentration giving a half-maximal response (EC50) was 13.4 µM. The same measure for `Oc1c(Br)cc(Br)cc1C=Nc1cccc2ncccc12`: 12.9 µM; for `Fc1ccc(/C=N/Nc2nc3ccccc3[nH]2)cc1F`: 42.8 µM.

For the molecule `Nc1nonc1C(=O)NCCN=Cc1cc(Cc2ccccc2)cc(Br)c1O`, the EC50 was 28 µM.

For `CCCCCN=C(N)N/N=C/c1c[nH]c2ccc(OC)cc12`, the EC50 was 2.57 µM. In the case of `COc1ccc(Nc2cc(C)c3c(O)cccc3n2)cc1`, the EC50 is 8.86 µM. The same measure for `Oc1ccc(CN2CCCc3ccccc32)c2cccnc12`: 3.33 µM; for `O=C(NCCCN1CCN(c2ccc(F)cc2)CC1)Nc1ccc([N+](=O)[O-])cc1`: 45.1 µM; for `C#CCOCCOCCOCCNc1nc(N2CCN(C(=O)[C@H]([C@@H](C)CC)n3cc([C@@H](N)Cc4ccc(O)cc4)nn3)CC2)nc(N2CCN(C(=O)[C@H](Cc3cc4ccccc4[nH]3)n3cc([C@@H](N)CC(C)C)nn3)CC2)n1`: under 0.1 µM.

In the case of `CCN1/C(=C/C=C/C=C/c2sc3ccccc3[n+]2CC)Sc2ccccc21`, the EC50 is 7.7 µM. For the molecule `O=C(N/N=C/c1ccc(O)c(O)c1)C1c2ccccc2Oc2ccccc21`, the EC50 is 42 µM.

With `CCC(O)(CC)C(=O)N/N=C/c1cc(Br)cc(Br)c1O`, the EC50 was 15.4 µM.

As for `C=CCNc1ncnc2c1[nH]c1ccc(C)cc12`, the EC50 was 29.5 µM. In the case of `O=c1c(O)cccc2cc(O)c(O)c(O)c12`, the EC50 is 24.2 µM.

For the origin of these results see PubChem BioAssay AID2252 (Southern Research Specialized Biocontainment Screening …, 2010).
